How the values were obtained:
barnyard grass [1] = experiment: Test Example 5: herbicidal effect by foliage application, plastic box (Table 20, symbol H); type: in vivo, barnyard grass (Echinochloa crus-galli); conditions: 320 g/ha
How it was run: (§1)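 Foliar spray test: emulsion formulation diluted in water to a set application rate, sprayed onto 14-day-old plants raised in diluvial soil at 25° C to 30° C under glass. Both herbicidal effect and crop effect rated visually three weeks later.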

rice flat sedge = experiment: Test Example 3: herbicidal effect by foliage application, Wagner pot (Table 18, symbol E); type: in vivo, rice flat sedge (Cyperus iria)
How it was run: (§2)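 Plants were sown in alluvial soil held under 0.1–0.5 cm standing water and grown 14 days in a greenhouse at 25–30 °C. An emulsifiable formulation, water-diluted to the set dose, was then sprayed onto the foliage, and effects were scored three weeks later using previously defined criteria.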

persian speedwell = experiment: Test Example 5: herbicidal effect by foliage application, plastic box (Table 20, symbol R); type: in vivo, Persian speedwell (Veronica persica); conditions: 320 g/ha
How it was run: as §1

chickweed = experiment: Test Example 5: herbicidal effect by foliage application, plastic box (Table 20, symbol P); type: in vivo, common chickweed (Stellaria media); conditions: 320 g/ha
How it was run: as §1

Italian ryegrass = experiment: Test Example 5: herbicidal effect by foliage application, plastic box (Table 20, symbol K); type: in vivo, Italian ryegrass (Lolium multiflorum); conditions: 320 g/ha
How it was run: as §1

Japanese bulrush = experiment: Test Example 1: herbicidal activity, application before weed generation under submerged conditions (Table 16, symbol B); type: in vivo, Japanese bulrush (Schoenoplectus juncoides); conditions: amount of applied herbicide 320 g/ha
How it was run: (§3)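 Submerged Wagner pots (alluvial soil, 4 cm water) sown with weed seeds and planted with 2.5-leaf rice seedlings; emulsifiable concentrate diluted in water applied to water surface on sowing day. Held in greenhouse at 25-30 °C; injury scored 0-5 by herbicidal rate after three weeks.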

blackgrass = experiment: Test Example 5: herbicidal effect by foliage application, plastic box (Table 20, symbol J); type: in vivo, blackgrass (Alopecurus myosuroides); conditions: 320 g/ha
How it was run: as §1

windgrass = experiment: Test Example 5: herbicidal effect by foliage application, plastic box (Table 20, symbol L); type: in vivo, windgrass (Apera spica-venti); conditions: 320 g/ha
How it was run: as §1

late watergrass = experiment: Test Example 1: herbicidal activity, application before weed generation under submerged conditions (Table 16, symbol A); type: in vivo, late watergrass (Echinochloa oryzicola); conditions: amount of applied herbicide 320 g/ha
How it was run: as §3

barnyard grass [2] = experiment: Test Example 3: herbicidal effect by foliage application, Wagner pot (Table 18, symbol H); type: in vivo, barnyard grass (Echinochloa crus-galli)
How it was run: as §2

wild oat = experiment: Test Example 5: herbicidal effect by foliage application, plastic box (Table 20, symbol I); type: in vivo, wild oat (Avena fatua); conditions: 320 g/ha
How it was run: as §1

redroot pigweed = experiment: Test Example 5: herbicidal effect by foliage application, plastic box (Table 20, symbol N); type: in vivo, redroot pigweed (Amaranthus retroflexus); conditions: 320 g/ha
How it was run: as §1

southern crabgrass = experiment: Test Example 5: herbicidal effect by foliage application, plastic box (Table 20, symbol F); type: in vivo, southern crabgrass (Digitaria ciliaris); conditions: 320 g/ha
How it was run: as §1

velvetleaf = experiment: Test Example 5: herbicidal effect by foliage application, plastic box (Table 20, symbol M); type: in vivo, velvetleaf (Abutilon theophrasti); conditions: 320 g/ha
How it was run: as §1

green foxtail = experiment: Test Example 5: herbicidal effect by foliage application, plastic box (Table 20, symbol G); type: in vivo, green foxtail (Setaria viridis); conditions: 320 g/ha
How it was run: as §1

lambsquarters = experiment: Test Example 5: herbicidal effect by foliage application, plastic box (Table 20, symbol O); type: in vivo, lambsquarters (Chenopodium album); conditions: 320 g/ha
How it was run: as §1

oval-leafed pondweed = experiment: Test Example 1: herbicidal activity, application before weed generation under submerged conditions (Table 16, symbol C); type: in vivo, oval-leafed pondweed (Monochoria vaginalis); conditions: amount of applied herbicide 320 g/ha
How it was run: as §3

Chinese sprangletop = experiment: Test Example 3: herbicidal effect by foliage application, Wagner pot (Table 18, symbol D); type: in vivo, chinese sprangletop (Leptochloa chinensis)
How it was run: as §2

[3] = foliage application after 14-day growth, evaluated three weeks after application
[4] = foliage application, three weeks after application
[5] = amount of applied herbicide 320 g/ha

COc1ccc2c(-c3c(OCC#N)c(C)nn(C)c3=O)c(-c3ccccc3OC)sc2c1 [3-153]
herbicidal effect on H: barnyard grass (evaluation grade 0-5) (barnyard grass [1]; [3]): 5 (Herbicidal rate of 90% or more (almost completely withered))
herbicidal effect on rice flat sedge (E) (rice flat sedge; 320 g/ha): 0 (Herbicidal rate of 5% or less (almost no effect))
herbicidal effect on R: persian speedwell (evaluation grade 0-5) (persian speedwell; [3]): 4 (Herbicidal rate of 70% or more and less than 90%)
herbicidal effect on P: chickweed (evaluation grade 0-5) (chickweed; [3]): 5 (Herbicidal rate of 90% or more (almost completely withered))
herbicidal effect on K: Italian ryegrass (evaluation grade 0-5) (Italian ryegrass; [3]): 0 (Herbicidal rate of 5% or less (almost no effect))
Herbicidal effect, B: Japanese bulrush (Japanese bulrush): 3 (Herbicidal rate of 40% or more and less than 70%)
herbicidal effect on J: blackgrass (evaluation grade 0-5) (blackgrass; [3]): 3 (Herbicidal rate of 40% or more and less than 70%)
herbicidal effect on L: windgrass (evaluation grade 0-5) (windgrass; [3]): 4 (Herbicidal rate of 70% or more and less than 90%)
Herbicidal effect, A: late watergrass (late watergrass): 3 (Herbicidal rate of 40% or more and less than 70%)
herbicidal effect on barnyard grass (H) (barnyard grass [2]; 320 g/ha): 5 (Herbicidal rate of 90% or more (almost completely withered))
herbicidal effect on I: wild oat (evaluation grade 0-5) (wild oat; [3]): 0 (Herbicidal rate of 5% or less (almost no effect))
herbicidal effect on N: redroot pigweed (evaluation grade 0-5) (redroot pigweed; [3]): 4 (Herbicidal rate of 70% or more and less than 90%)
herbicidal effect on F: southern crabgrass (evaluation grade 0-5) (southern crabgrass; [3]): 3 (Herbicidal rate of 40% or more and less than 70%)
herbicidal effect on M: velvetleaf (evaluation grade 0-5) (velvetleaf; [3]): 5 (Herbicidal rate of 90% or more (almost completely withered))
herbicidal effect on G: green foxtail (evaluation grade 0-5) (green foxtail; [3]): 5 (Herbicidal rate of 90% or more (almost completely withered))
herbicidal effect on O: lambsquarters (evaluation grade 0-5) (lambsquarters; [3]): 4 (Herbicidal rate of 70% or more and less than 90%)
Herbicidal effect, C: oval-leafed pondweed (oval-leafed pondweed): 3 (Herbicidal rate of 40% or more and less than 70%)
herbicidal effect on Chinese sprangletop (D) (Chinese sprangletop; 320 g/ha): 2 (Herbicidal rate of 20% or more and less than 40%)

CSCCOc1ccc(-c2sc3ccc(F)cc3c2-c2c(OCCSC)c(C)nn(C)c2=O)cc1 [2-420]
H: barnyard grass, herbicidal effect grade (barnyard grass [1]; [4]): 5 (Herbicidal rate of 90% or more (almost completely withered))
herbicidal effect on E: rice flat sedge (rice flat sedge; [5]): 4 (Herbicidal rate of 70% or more and less than 90%)
R: persian speedwell, herbicidal effect grade (persian speedwell; [4]): 4 (Herbicidal rate of 70% or more and less than 90%)
P: chickweed, herbicidal effect grade (chickweed; [4]): 4 (Herbicidal rate of 70% or more and less than 90%)
K: Italian ryegrass, herbicidal effect grade (Italian ryegrass; [4]): 1 (Herbicidal rate of 5% or more and less than 20%)
Herbicidal effect, B: Japanese bulrush (Japanese bulrush): 3 (Herbicidal rate of 40% or more and less than 70%)
J: blackgrass, herbicidal effect grade (blackgrass; [4]): 4 (Herbicidal rate of 70% or more and less than 90%)
L: windgrass, herbicidal effect grade (windgrass; [4]): 4 (Herbicidal rate of 70% or more and less than 90%)
Herbicidal effect, A: late watergrass (late watergrass): 2 (Herbicidal rate of 20% or more and less than 40%)
herbicidal effect on H: barnyard grass (barnyard grass [2]; [5]): 5 (Herbicidal rate of 90% or more (almost completely withered))
I: wild oat, herbicidal effect grade (wild oat; [4]): 0 (Herbicidal rate of 5% or less (almost no effect))
N: redroot pigweed, herbicidal effect grade (redroot pigweed; [4]): 5 (Herbicidal rate of 90% or more (almost completely withered))
F: southern crabgrass, herbicidal effect grade (southern crabgrass; [4]): 4 (Herbicidal rate of 70% or more and less than 90%)
M: velvetleaf, herbicidal effect grade (velvetleaf; [4]): 4 (Herbicidal rate of 70% or more and less than 90%)
G: green foxtail, herbicidal effect grade (green foxtail; [4]): 4 (Herbicidal rate of 70% or more and less than 90%)
O: lambsquarters, herbicidal effect grade (lambsquarters; [4]): 5 (Herbicidal rate of 90% or more (almost completely withered))
Herbicidal effect, C: oval-leafed pondweed (oval-leafed pondweed): 0 (Herbicidal rate of 5% or less (almost no effect))
herbicidal effect on D: Chinese sprangletop (Chinese sprangletop; [5]): 3 (Herbicidal rate of 40% or more and less than 70%)

Reference: patent publication US20230085307A1, “PYRIDAZINONE COMPOUND AND HERBICIDE” (NISSAN CHEMICAL CORPORATION, priority 2019, published 2023)
